Data taken from patent publication US6416975B1 (Gliatech, Inc., priority 1998, dated 2002).

Tests used:
[1] = biological target: T1, hGlyT2 transporter (full-length) (Homo sapiens, UniProt Q9Y345, G24S/N188D/Q362L/R74W/S155G/T582S/V431A); conditions: full-length hGlyT2, COS-7 cells
T1 sequence (Q9Y345 1-797 G24S/R74W/S155G/N188D/Q362L/V431A/T582S): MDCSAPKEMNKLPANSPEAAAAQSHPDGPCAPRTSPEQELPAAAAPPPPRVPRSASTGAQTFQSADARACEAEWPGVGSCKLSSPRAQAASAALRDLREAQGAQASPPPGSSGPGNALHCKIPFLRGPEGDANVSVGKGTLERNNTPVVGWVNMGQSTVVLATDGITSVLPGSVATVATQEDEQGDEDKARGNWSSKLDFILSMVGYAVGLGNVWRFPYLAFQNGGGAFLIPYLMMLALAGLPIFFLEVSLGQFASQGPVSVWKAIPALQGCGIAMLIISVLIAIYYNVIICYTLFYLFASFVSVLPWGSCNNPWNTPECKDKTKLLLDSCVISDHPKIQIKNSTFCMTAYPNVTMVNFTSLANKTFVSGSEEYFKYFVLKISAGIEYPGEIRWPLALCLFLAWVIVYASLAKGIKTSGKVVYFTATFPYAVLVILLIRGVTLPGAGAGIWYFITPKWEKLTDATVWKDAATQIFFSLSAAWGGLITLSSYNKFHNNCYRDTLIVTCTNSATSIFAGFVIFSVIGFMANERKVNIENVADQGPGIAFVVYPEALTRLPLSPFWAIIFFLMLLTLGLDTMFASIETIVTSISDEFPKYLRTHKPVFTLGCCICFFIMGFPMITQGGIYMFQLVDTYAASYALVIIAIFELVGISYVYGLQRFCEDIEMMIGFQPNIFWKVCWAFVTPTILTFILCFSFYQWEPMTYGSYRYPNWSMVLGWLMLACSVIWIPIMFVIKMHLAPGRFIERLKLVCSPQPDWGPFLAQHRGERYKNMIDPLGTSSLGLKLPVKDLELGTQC

[2] = biological target: T2, truncated hGlyT2 (start at Met-154, lacking the first 153 amino acids) (Homo sapiens, UniProt Q9Y345, N188D/Q362L/S155G/T582S/V431A); conditions: truncated hGlyT2, COS-7 cells
T2 sequence (Q9Y345 154-797 S155G/N188D/Q362L/V431A/T582S): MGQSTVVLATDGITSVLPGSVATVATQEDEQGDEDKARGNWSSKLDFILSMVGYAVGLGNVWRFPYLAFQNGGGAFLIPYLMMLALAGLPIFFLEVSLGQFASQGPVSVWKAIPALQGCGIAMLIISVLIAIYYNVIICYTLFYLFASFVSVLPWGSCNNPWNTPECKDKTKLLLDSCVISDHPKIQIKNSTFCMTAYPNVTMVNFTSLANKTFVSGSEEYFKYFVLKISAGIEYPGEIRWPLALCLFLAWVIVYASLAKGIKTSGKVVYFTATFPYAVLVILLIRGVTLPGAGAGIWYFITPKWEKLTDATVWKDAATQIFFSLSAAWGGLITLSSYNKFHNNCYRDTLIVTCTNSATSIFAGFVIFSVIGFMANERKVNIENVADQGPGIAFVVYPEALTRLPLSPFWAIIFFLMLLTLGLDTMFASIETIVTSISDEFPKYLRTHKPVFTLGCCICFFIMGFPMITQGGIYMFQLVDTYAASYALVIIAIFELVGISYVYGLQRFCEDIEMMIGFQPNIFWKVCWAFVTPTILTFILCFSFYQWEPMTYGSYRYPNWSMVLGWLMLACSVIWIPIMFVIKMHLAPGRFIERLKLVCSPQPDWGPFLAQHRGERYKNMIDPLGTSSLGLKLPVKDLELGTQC

[3] = biological target: T3, rat GlyT2 (Rattus norvegicus, UniProt P58295); conditions: Liu et al. 1993, cited from earlier work
T3 sequence (P58295 1-799): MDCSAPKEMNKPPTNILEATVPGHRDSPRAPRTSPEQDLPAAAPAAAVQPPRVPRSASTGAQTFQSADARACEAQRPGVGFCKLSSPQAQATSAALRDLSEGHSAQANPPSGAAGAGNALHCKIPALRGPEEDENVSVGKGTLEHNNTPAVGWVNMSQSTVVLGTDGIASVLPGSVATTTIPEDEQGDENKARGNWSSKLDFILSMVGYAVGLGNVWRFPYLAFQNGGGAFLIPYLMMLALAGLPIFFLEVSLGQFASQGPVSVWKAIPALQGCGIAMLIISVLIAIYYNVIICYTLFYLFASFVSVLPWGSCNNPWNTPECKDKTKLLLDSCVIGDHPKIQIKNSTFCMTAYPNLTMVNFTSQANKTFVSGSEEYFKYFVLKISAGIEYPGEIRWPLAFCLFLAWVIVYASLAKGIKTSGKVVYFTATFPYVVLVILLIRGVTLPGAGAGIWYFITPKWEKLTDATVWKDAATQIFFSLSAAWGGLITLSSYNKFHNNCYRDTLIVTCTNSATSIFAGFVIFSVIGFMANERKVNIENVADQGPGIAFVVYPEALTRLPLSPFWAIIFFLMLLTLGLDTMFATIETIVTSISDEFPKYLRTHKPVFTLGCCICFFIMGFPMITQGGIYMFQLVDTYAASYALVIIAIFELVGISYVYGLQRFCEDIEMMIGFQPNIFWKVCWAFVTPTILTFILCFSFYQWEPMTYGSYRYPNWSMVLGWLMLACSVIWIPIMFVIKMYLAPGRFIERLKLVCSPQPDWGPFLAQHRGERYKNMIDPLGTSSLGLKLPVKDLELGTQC

[4] = biological target: T4, GlyT1 (Homo sapiens, UniProt P48067); conditions: sarcosine concentration exceeds 200 μM; cited from earlier work
T4 sequence (P48067 1-706): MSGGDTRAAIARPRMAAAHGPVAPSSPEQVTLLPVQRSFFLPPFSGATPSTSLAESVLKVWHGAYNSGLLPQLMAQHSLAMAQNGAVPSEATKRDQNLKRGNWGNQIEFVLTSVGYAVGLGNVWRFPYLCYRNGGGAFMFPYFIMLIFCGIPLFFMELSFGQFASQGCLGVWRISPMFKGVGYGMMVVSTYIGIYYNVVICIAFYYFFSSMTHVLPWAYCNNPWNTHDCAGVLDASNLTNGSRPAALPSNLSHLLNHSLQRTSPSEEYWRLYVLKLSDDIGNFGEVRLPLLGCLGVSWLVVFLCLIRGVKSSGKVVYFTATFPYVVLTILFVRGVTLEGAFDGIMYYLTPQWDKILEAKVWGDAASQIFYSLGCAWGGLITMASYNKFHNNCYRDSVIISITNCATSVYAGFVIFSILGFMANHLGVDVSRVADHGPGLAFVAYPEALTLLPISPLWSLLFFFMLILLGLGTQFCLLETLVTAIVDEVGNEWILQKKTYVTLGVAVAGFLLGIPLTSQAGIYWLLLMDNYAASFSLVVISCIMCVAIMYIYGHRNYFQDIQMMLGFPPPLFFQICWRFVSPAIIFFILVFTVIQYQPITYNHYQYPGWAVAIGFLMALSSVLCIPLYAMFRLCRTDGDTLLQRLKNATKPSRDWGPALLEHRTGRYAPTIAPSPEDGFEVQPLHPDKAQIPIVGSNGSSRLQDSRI

[5] = substrate: NCC(=O)O; assay: cells, lysate or membranes; conditions: pH 7.4
[6] = 1 mM sarcosine, 15 min pretreatment

Molecule: NCC(=O)O [glycine]
- Vmax of glycine uptake (Eadie-Hofstee) [1]: 190±3 pmol glycine/mg protein/min
- Vmax of glycine uptake [2]: 67±3 pmol glycine/mg protein/min
- Km ([3]; read-out: Km reported for rat GlyT2): 13 µM

Molecule: CNCC(=O)O [sarcosine]
- reduction of glycine uptake [1, 6]: less than 15%
- effect of increasing concentrations of sarcosine on glycine uptake (FIG. 5) [1]: insensitive to sarcosine inhibition
- reduction of glycine uptake [2, 6]: less than 15%
- effect of increasing concentrations of sarcosine on glycine uptake (FIG. 5) [2]: insensitive to sarcosine inhibition
- inhibition of rat GlyT2-mediated glycine uptake ([3]; sarcosine 1 mM): 10-20%
- inhibition of GlyT1-mediated glycine uptake [4]: almost completely inhibited

B1: hGlyT2 transporter (full-length) (Homo sapiens; G24S/N188D/Q362L/R74W/S155G/T582S/V431A) (protein)
chain: MDCSAPKEMNKLPANSPEAAAAQSHPDGPCAPRTSPEQELPAAAAPPPPRVPRSASTGAQTFQSADARACEAEWPGVGSCKLSSPRAQAASAALRDLREAQGAQASPPPGSSGPGNALHCKIPFLRGPEGDANVSVGKGTLERNNTPVVGWVNMGQSTVVLATDGITSVLPGSVATVATQEDEQGDEDKARGNWSSKLDFILSMVGYAVGLGNVWRFPYLAFQNGGGAFLIPYLMMLALAGLPIFFLEVSLGQFASQGPVSVWKAIPALQGCGIAMLIISVLIAIYYNVIICYTLFYLFASFVSVLPWGSCNNPWNTPECKDKTKLLLDSCVISDHPKIQIKNSTFCMTAYPNVTMVNFTSLANKTFVSGSEEYFKYFVLKISAGIEYPGEIRWPLALCLFLAWVIVYASLAKGIKTSGKVVYFTATFPYAVLVILLIRGVTLPGAGAGIWYFITPKWEKLTDATVWKDAATQIFFSLSAAWGGLITLSSYNKFHNNCYRDTLIVTCTNSATSIFAGFVIFSVIGFMANERKVNIENVADQGPGIAFVVYPEALTRLPLSPFWAIIFFLMLLTLGLDTMFASIETIVTSISDEFPKYLRTHKPVFTLGCCICFFIMGFPMITQGGIYMFQLVDTYAASYALVIIAIFELVGISYVYGLQRFCEDIEMMIGFQPNIFWKVCWAFVTPTILTFILCFSFYQWEPMTYGSYRYPNWSMVLGWLMLACSVIWIPIMFVIKMHLAPGRFIERLKLVCSPQPDWGPFLAQHRGERYKNMIDPLGTSSLGLKLPVKDLELGTQC
- Km ([5]; other: full-length hGlyT2, COS-7 cells, 15 min at 37° C.): 10 ± 0.4 µM

B2: truncated hGlyT2 (start at Met-154, lacking the first 153 amino acids) (Homo sapiens; N188D/Q362L/S155G/T582S/V431A) (protein)
chain: MGQSTVVLATDGITSVLPGSVATVATQEDEQGDEDKARGNWSSKLDFILSMVGYAVGLGNVWRFPYLAFQNGGGAFLIPYLMMLALAGLPIFFLEVSLGQFASQGPVSVWKAIPALQGCGIAMLIISVLIAIYYNVIICYTLFYLFASFVSVLPWGSCNNPWNTPECKDKTKLLLDSCVISDHPKIQIKNSTFCMTAYPNVTMVNFTSLANKTFVSGSEEYFKYFVLKISAGIEYPGEIRWPLALCLFLAWVIVYASLAKGIKTSGKVVYFTATFPYAVLVILLIRGVTLPGAGAGIWYFITPKWEKLTDATVWKDAATQIFFSLSAAWGGLITLSSYNKFHNNCYRDTLIVTCTNSATSIFAGFVIFSVIGFMANERKVNIENVADQGPGIAFVVYPEALTRLPLSPFWAIIFFLMLLTLGLDTMFASIETIVTSISDEFPKYLRTHKPVFTLGCCICFFIMGFPMITQGGIYMFQLVDTYAASYALVIIAIFELVGISYVYGLQRFCEDIEMMIGFQPNIFWKVCWAFVTPTILTFILCFSFYQWEPMTYGSYRYPNWSMVLGWLMLACSVIWIPIMFVIKMHLAPGRFIERLKLVCSPQPDWGPFLAQHRGERYKNMIDPLGTSSLGLKLPVKDLELGTQC
- Km ([5]; other: truncated hGlyT2, COS-7 cells, 37.0 °C): 9 ± 1 µM
